Reference: patent publication US11564922B2, “Methods of treating crohn's disease and ulcerative colitis” (AbbVie Inc., priority 2017, dated 2023)
Entries after “also recorded” stand apart in the source; their conditions may differ.

Key:
[1] = Solid state forms of upadacitinib: hygroscopicity; assay type: physicochemical
[2] = Solid state forms of upadacitinib: chemical and physical stability
[3] = tested on: subjects with moderately to severely active CD; test: Study M13-740: Phase 2 induction study, immediate-release upadacitinib vs placebo; assay type: in vivo, human; conditions: induction phase of Study M13-740, immediate-release formulation, doses of 6 mg BID and higher
[4] = Pharmacokinetic exposure of once-daily formulation versus immediate-release formulation (AUC, Cmin, Cmax); assay type: in vivo, human; conditions: 15 mg QD and 30 mg QD once-daily formulation versus 6 mg BID and 12 mg BID immediate-release formulation, respectively
Description: This study evaluated two maintenance doses of upadacitinib at 15 mg and 30 mg QD. […] In addition, all the currently available PK, pharmacodynamic, safety, and efficacy data from upadacitinib studies were used to support the selection of these doses. […] Following induction with 45 mg QD, doses of 15 mg QD and 30 mg QD are expected to maintain clinical and endoscopic response while having better long-term safety profile compared to higher doses. Doses of 15 mg QD and 30 mg QD for up to 240 weeks were expected to be efficacious with an acceptable safety profile.

[5] = tested on: subjects with moderately to severely active ulcerative colitis; test: Example 20: Phase 3 maintenance study in ulcerative colitis (Study M14-234 Substudy 3), upadacitinib 15 mg or 30 mg QD vs placebo, 52 weeks; assay type: in vivo, human; conditions: for Corticosteroid-free remission, % of patients: patients in remission at completion of the 8-week induction studies; for Clinical remission (per Adapted Mayo Score) / Endoscopic improvement / Histologic-endoscopic mucosal improvement / Corticosteroid-free clinical remission: Week 52; for Corticosteroid-free clinical remission: among patients with clinical remission after 8 weeks of induction; for Clinical remission per Adapted Mayo Score at Week 52, % / Clinical remission at Week 52, Treatment Difference vs. PBO / Discontinued from Study Drug, Adverse events (primary reason), % / Discontinued from Study Drug, Lack of efficacy (primary reason), %: ITTA; for Clinical remission per Adapted Mayo Score at Week 52, % / Clinical remission at Week 52, Treatment Difference vs. PBO: NRI-C
[6] = tested on: subjects with moderately to severely active ulcerative colitis; test: Example 19: Phase 3 induction study in ulcerative colitis (Study M14-675), upadacitinib 45 mg QD vs placebo
Description: The primary objective of this study is to evaluate the efficacy and safety of upadacitinib 45 mg once daily (QD) compared to placebo in inducing clinical remission (per Adapted Mayo score) in subjects with moderately to severely active ulcerative colitis (UC).
The secondary objectives of the study are to evaluate the efficacy of upadacitinib 45 mg QD comparing with placebo in ranked secondary endpoints of achieving endoscopic improvement, endoscopic remission, clinical response per Adapted Mayo Score, clinical response per Partial Adapted Mayo score, histologic-endoscopic mucosal improvement, no bowel urgency, no abdominal pain, histologic improvement, mucosal healing, and change in IBDQ total score and FACIT-F score.
Males and females between 18 and 75 years of age with a diagnosis of moderately to severely active UC. […] The study will consist of a mixed population: biologic-inadequate responders (bio-IR) and non-biologic-inadequate responders (non-bio-IR).
The randomization will be stratified by bio-IR status (bio-IR vs non-bio-IR), corticosteroid use (yes or no) and Adapted Mayo score (≤7 or >7) at Baseline. Within bio-IR, the randomization will be further stratified by number of prior biologic treatments (≤1 or >1). Within non-bio-IR, the randomization will be further stratified by previous biologic use (yes or no).
The blind from Part 1 will not be broken for the duration of the study as subjects will be assessed as clinical non-responders at the 8 Week Visit of Part 1 and will be moved to Part 2 for further treatment in the study without identifying their initial treatment assignment. All eligible subjects entering Part 2 will receive open-label treatment with upadacitinib 45 mg QD for 8 additional weeks (until Week 16). At Week 16, an endoscopy will be performed to evaluate the treatment effect. A flexible rectosigmoidoscopy is recommended. However, the use of flexible sigmoidoscopy or colonoscopy is at the investigators' discretion based on local practice.
For the assessment of the clinical endpoints, the stool frequency and the rectal bleeding subscore will be calculated as an average of the entries recorded into the subject's diary from the most recent consecutive 3-day period prior to each study visit. If diary entries from the 3 consecutive days prior to the visit are not available, the 3 most recent consecutive days in the last 10 days will be utilized. If data is not available for 3 consecutive days, the average of the entries from the most recent 3 non-consecutive days in the last 10 days will be utilized. Clinical endpoints of abdominal pain and bowel urgency from subject diaries will be measured at the same time period as the stool frequency and rectal bleeding subscores. Proportion of subjects who report no abdominal pain and proportion of subjects who report no bowel urgency in the 3 days will be estimated.
Subjects will undergo a full colonoscopy with biopsy for histologic assessment during Screening with local investigator assessment for Mayo endoscopic subscore for initial eligibility assessment, confirmed by a central reader prior to randomization. At end of treatment (Week 8 in Part 1) a full colonoscopy or flexible sigmoidoscopy, depending on the extent of disease at Screening, will be performed.
The endoscopic subscore result from the central reader during the screening period will be used to evaluate the eligibility of a subject to enroll in the study and for all efficacy assessments at Week 8 of Part 1.
Male or female between 16 and 75 years of age at Baseline.

[7] = Solid state forms of upadacitinib: solubility and bioavailability; assay type: physicochemical

Structure (SMILES): CC[C@@H]1CN(C(=O)NCC(F)(F)F)C[C@@H]1c1cnc2cnc3[nH]ccc3n12.CC[C@@H]1CN(C(=O)NCC(F)(F)F)C[C@@H]1c1cnc2cnc3[nH]ccc3n12.O [Freebase Hydrate Form C]
- Hygroscopicity [1]: low hygroscopicity
- Chemical stability [2]: good chemical stability

Structure (SMILES): CC[C@@H]1CN(C(=O)NCC(F)(F)F)C[C@@H]1c1cnc2cnc3[nH]ccc3n12 [upadacitinib, (3S,4R)-3-ethyl-4-(3H-imidazo[1,2-a]pyrrolo[2,3-e]pyrazin-8-yl)-N-(2,2,2-trifluoroethyl)pyrrolidine-1-carboxamide]
- clinical and endoscopic efficacy compared to placebo [3]: demonstrated the clinical and endoscopic efficacy
- daily area under the concentration-time curve (AUC) [4]: equivalent
- minimum plasma concentration (Cmin) and maximum plasma concentration (Cmax) [4]: comparable
- Clinical remission per Adapted Mayo score at Week 52, proportion of subjects ([5]; 15 mg QD maintenance after 8 weeks 45 mg QD induction): 42.3%
- Safety and tolerability ([5]; 15 mg and 30 mg QD, 52 weeks): generally safe and well tolerated
- Corticosteroid-free remission, % of patients ([5]; 15 mg cohort): 57%
- Clinical remission (per Adapted Mayo Score) ([5]; 15 mg once daily (n = 148)): 42%
- Endoscopic improvement ([5]; 15 mg once daily (n = 148)): 49%
- Histologic-endoscopic mucosal improvement ([5]; 15 mg once daily (n = 148)): 35%
- Corticosteroid-free clinical remission ([5]; 15 mg once daily, N = 47): 57%
- Clinical remission per Adapted Mayo score at Week 52, proportion of subjects ([5]; 30 mg QD maintenance after 8 weeks 45 mg QD induction): 51.7%
- Corticosteroid-free remission, % of patients ([5]; 30 mg cohort): 68%
- Clinical remission (per Adapted Mayo Score) ([5]; 30 mg once daily (n = 154)): 52%
- Endoscopic improvement ([5]; 30 mg once daily (n = 154)): 62%
- Histologic-endoscopic mucosal improvement ([5]; 30 mg once daily (n = 154)): 49%
- Corticosteroid-free clinical remission ([5]; 30 mg once daily, N = 58): 68%
- Clinical response per Partial Adapted Mayo Score and clinical remission rate per Partial Mayo Score over time ([5]; both upadacitinib groups (15 mg, 30 mg)): maintained over time until Week 52
- Upadacitinib pharmacokinetics, induction vs maintenance periods ([5]; subjects with UC): consistent between the induction and maintenance periods
- Rates of severe adverse events and AEs leading to study drug discontinuation compared to placebo ([6]; 45 mg): lower
- Onset of clinical response per Partial Adapted Mayo Score ([6]; 45 mg QD): as early as Week 2
- Patients with clinical response at week 8 ([6]; 45 mg QD): approximately 75%
- Rates of neutropenia, lymphopenia, hepatic disorder, and CPK elevation compared to placebo ([6]; 45 mg QD): higher
- Tolerability of eight-week induction treatment ([6]; 45 mg QD): well tolerated
- Week 8 non-responding patients with clinical response by 16 weeks ([6]; 45 mg QD, additional 8 weeks): approximately 50%
- Deaths ([6]; 45 mg QD, 8 weeks): No deaths were reported
- Primary and ranked secondary endpoints vs placebo ([6]; 45 mg QD, 8 weeks, all p<0.001): met primary and all ranked secondary endpoints
- Proportion of subjects achieving clinical remission per Adapted Mayo score at Week 8 ([6]; 45 mg QD, SFS ≤1 and not greater than baseline, RBS 0, endoscopic subscore ≤1): 33.5%

Structure (SMILES): CC[C@@H]1CN(C(=O)NCC(F)(F)F)C[C@@H]1c1cnc2cnc3[nH]ccc3n12 [Freebase Hydrate Form B]
- Physical stability [2]: not physically stable; also recorded: not stable after isolation at ambient conditions

Structure (SMILES): CC[C@@H]1CN(C(=O)NCC(F)(F)F)C[C@@H]1c1cnc2cnc3[nH]ccc3n12 [UPA, upadacitinib]
- Clinical remission per Adapted Mayo Score at Week 52, % ([5]; Bio-IR, UPA 15 mg QD N = 71): 40.5%
- Clinical remission at Week 52, Treatment Difference vs. PBO ([5]; Bio-IR, UPA 15 mg): 33.0%
- Clinical remission per Adapted Mayo Score at Week 52, % ([5]; Bio-IR, UPA 30 mg QD N = 73): 49.1%
- Clinical remission at Week 52, Treatment Difference vs. PBO ([5]; Bio-IR, UPA 30 mg): 41.6%
- Clinical remission per Adapted Mayo Score at Week 52, % ([5]; Non-Bio-IR, UPA 15 mg QD N = 77): 43.9%
- Clinical remission at Week 52, Treatment Difference vs. PBO ([5]; Non-Bio-IR, UPA 15 mg): 26.3%
- Clinical remission per Adapted Mayo Score at Week 52, % ([5]; Non-Bio-IR, UPA 30 mg QD N = 81): 54.0%
- Clinical remission at Week 52, Treatment Difference vs. PBO ([5]; Non-Bio-IR, UPA 30 mg): 36.3%
- Discontinued from Study Drug, Adverse events (primary reason), % ([5]; UPA 15 mg QD (N = 148)): (2.7) %
- Discontinued from Study Drug, Lack of efficacy (primary reason), % ([5]; UPA 15 mg QD (N = 148)): (23.6) %
- Discontinued from Study Drug, Adverse events (primary reason), % ([5]; UPA 30 mg QD (N = 154)): (5.2) %
- Discontinued from Study Drug, Lack of efficacy (primary reason), % ([5]; UPA 30 mg QD (N = 154)): (7.8) %

Structure (SMILES): CC[C@@H]1CN(C(=O)NCC(F)(F)F)C[C@@H]1c1cnc2cnc3[nH]ccc3n12 [Freebase Anhydrate Form D]
- Hygroscopicity [1]: reversibly hygroscopic
- Water content (hygroscopicity) ([1]; 90% RH at 25° C.): up to 1.8%
- Physical stability [2]: metastable relative to Freebase Hydrate Form C

Structure (SMILES): CC[C@@H]1CN(C(=O)NCC(F)(F)F)C[C@@H]1c1cnc2cnc3[nH]ccc3n12 [Amorphous Freebase]
- Hygroscopicity [1]: hygroscopic
- Water content (hygroscopicity) ([1]; 25° C./90% relative humidity): ≤ 12 % by weight
- Solubility [7]: greater solubility
- Chemical stability [2]: acceptable chemical stability
- Stability to light and peroxide [2]: acceptable stability to light and peroxide
